Laboratory results as given in patent publication EP0971739B1 (priority 1997, dated 1998).

System: tetanus toxoid
Design: species or system ICR mice
Details: mouse, in vivo

CCCCCCCCCCCCCCCC(=O)OC[C@H](COP(=O)([O-])OCC[N+](C)(C)C)OC(=O)CCCCCCCCCCCCCCC [DPPC, 1,2-Dipalmitoyl-sn-glycero-3-phosphocholine]
Anti-Tetanus Toxoid Titer^-1 Fecal Extract d7P2° IgA: <50 | Anti-Tetanus Toxoid Titer^-1 Fecal Extract d7P2° IgG: <50 | Anti-Tetanus Toxoid Titers^-1 IgG1: 25,600 | Anti-Tetanus Toxoid Titers^-1 IgG2a: 1,600 | Anti-Tetanus Toxoid Titers^-1 IgG2b: 3,200 | Serum Anti-Tetanus Toxoid Titer^-1 IgA-Specific d10P2°: 100 | Serum Anti-Tetanus Toxoid Titer^-1 IgA-Specific d10P3°: 200 | Serum Anti-Tetanus Toxoid Titer^-1 IgG-Specific d10P2°: 6,400 | Serum Anti-Tetanus Toxoid Titer^-1 IgG-Specific d10P3°: 6,400
